Legend:
[1] = test system: IL-1Ra release from human primary monocytes; assay: IL-1Ra release from human primary monocytes, immunoassay (ELISA) of supernatants; assay type: cell-based; conditions: primary human monocytes of healthy donors, 25 and 50 μg mL^−1, 48 h
Experimental: (§1) As an activity screen we focused on interleukin‐1 receptor antagonist (IL‐1Ra), a cytokine released by circulating antigen presenting cells (APC) in response to GA.[15, 35] […] To test our dendrimers, we quantified by immunoassay the release of IL‐1Ra from human primary monocytes of healthy donors, an easily accessible type of APC, stimulated or not by addition of lipopolysaccharide (LPS), which in our hands provided a reliable read‐out.[15] We tested at defined weight/volume (25 and 50 μg mL^−1 compound as typically reported for GA)[15, 35] to account for a possible activity increase with MW as often observed with dendrimers when using molarity. In the initial screen the levels of secreted IL‐1Ra remained below 1 ng mL^−1 for all the smaller test compounds as well as with the linear peptide analogs of GA.
(§2) Figure 2 Cytokine level of IL‐1Ra in supernatants of primary human monocytes of healthy donors treated with peptide dendrimers, evaluated by ELISA (bars, left vertical axis) and mRNA levels (▴, right vertical axis). […] For mRNA levels evaluation, 2×10^6 cells 3 mL^−1 in 6 well plates were incubated with 50 μg mL^−1 dendrimer or GA for 18 h. […]
(§3) Enzyme-linked immunosorbent assay (ELISA)
(§4) Monocytes (5×10^4 cells/200 μL well; 96-well plates) were preincubated for 1 h with or without compounds in RPMI-1640 medium supplemented with 10% heat-inactivated FBS, 50 μg/mL streptomycin, 50 U/mL penicillin, 2 mM L-glutamine, and 5 μg/mL polymyxin B sulfate and then cultured for 48 h in the presence or absence of LPS (100 ng/mL) (2). The production of IL-1Ra was measured in culture supernatants by commercially available enzyme immunoassay according to manufacture protocol.
(§5) Figure S2. Cytokine level of IL-1Ra in supernatants of monocytes for active dendrimers and analogues evaluated by ELISA assay on primary human monocytes of healthy donors. 5×10^4 cells/200 µL in 96 well plates, were incubated with dendrimers or GA as a control for 48 h in presence or absence of LPS (100 ng/mL), in a range of concentrations (50-25 µg/mL) (mean ± SD, n = 2 different experiments). The results are present as the difference between each sample and the non-treated sample to take into account the difference between base line for each donor.
(§6) Figure S3. Cytokine level of IL-1Ra in supernatants of monocytes for active dendrimers and […]
(§7) presence or absence of LPS (100 ng/mL), in a range of concentrations (100-12.5 µg/mL) (mean ± SD, n = 3 different experiments). […]

[2] = test system: IL-1Ra release from human primary monocytes; assay: as above; assay type: cell-based; parameters: key: +: Ability to induce IL‐1Ra on primary monocytes after 48 h of incubation in the presence of 25–50 μg mL^−1 compound; Ability to induce IL‐1Ra on primary monocytes after 48 h of incubation in the presence of 25–50 μg mL^−1 compound; conditions: for Act. (ability to induce IL-1Ra): Table 1, 48 h, 25–50 μg mL^−1 compound; for IL-1Ra: 48 h
Experimental: as §1, §2, §3, §4, §5, §6, §7

[3] = test system: IL-1Ra release from human primary monocytes; assay: as above; assay type: cell-based; parameters: key: +: Ability to induce IL-1Ra on primary monocytes after 48 h of incubation; Ability to induce IL-1Ra on primary monocytes after 48 h of incubation; conditions: for Act. (ability to induce IL-1Ra): Table S2 analogs of 1 and 4, primary monocytes, 48 h; for IL-1Ra: ability to induce IL-1Ra on primary monocytes after 48 h of incubation, class + / -
Experimental: as §1, §2, §3, §4, §5, §6, §7

[4] = Circular dichroism spectroscopy; assay type: physicochemical; conditions: 100 μg/mL, 8 mM phosphate buffer pH 7.2/7.4
Experimental: In terms of stereochemistry, activity was lost with D‐enantiomers D‐1 and D‐4, similar to the inactivity reported for D‐enantiomeric GA.[2]
Circular dichroism (CD) experiments were measured on a Jasco J-715 Spectropolarimeter. All the experiments were performed using Hellma Suprasil 110-QS 0.1 cm cuvettes. For each peptide, the measurements were performed in phosphate buffer (PB, pH=7.2, 8 mM) and in the presence of 5 mM dodecylphosphocholine. The concentration of the peptides was 100.0 μg/mL and each sample was measured using one accumulation. The scan rate was 10 nm/min, pitch 0.5 nm, response 16 sec and bandwidth 1.0 nm. The nitrogen flow was kept >8.5 L/min. After each measurement, the cuvettes were washed successively with 1 M HCl, milli-Q H2O and PB buffer. The baseline was recorded under the same conditions and subtracted manually.
Figure S12. Circular dichroism spectra of GA, 1 and 4 (100 μg/mL) in 8 mM phosphate buffer at pH 7.4 (a) or in presence of 5 mM dodecylphosphocholine. Percentage of α-helix and β- sheet was processed by Dichroweb using the CONTIN analysis program and reference set 3.
(1 picture or pasted object on this page, not shown here)

[5] = cited from earlier work
lymphocytes = assay: IL-1Ra in supernatants of lymphocytes (rest of leukocytes after Percoll), ELISA; assay type: cell-based, human; conditions: rest of leukocytes after Percoll gradient, 50-25 µg/mL, 48 h, n = 2
Experimental: Similar donor dependent responses of cytokine release to GA have been reported for IL‐27.[38]
Figure S3. Cytokine level of IL-1Ra in supernatants of monocytes for active dendrimers and analogues evaluated by ELISA assay on primary human monocytes of healthy donors. 5×10^4 cells/200 µL in 96 well plates, were incubated with dendrimers or GA as a control for 48 h in presence or absence of LPS (100 ng/mL), in a range of concentrations (100-12.5 µg/mL) (mean ± SD, n = 3 different experiments).
Figure S4. Cytokine level of IL-1Ra in supernatants of monocytes enriched fraction (a) and the rest of leukocytes (b) for active dendrimers and analogues evaluated by ELISA assay.
Monocytes fraction was separated from whole PBMC by Percoll density gradient centrifugation. 5×10^4 cells/200 µL in 96 well plates were incubated with dendrimers or GA (50-25 µg/mL) as a control for 48 h (mean ± SD, n = 2 different experiments). […]

Row | Substance | IL-1Ra release activity (in words) [1] | Act. (ability to induce IL-1Ra) [2] | IL-1Ra ([2]; supplement s001.csv) | IL-1Ra ([2]; supplement s003.zip SMILES csv) | Act. (ability to induce IL-1Ra) [3] | IL-1Ra [3] | conformation by CD spectra [4] | crossing of the BBB [5] | induction of IL-1Ra in lymphocytes (lymphocytes)
1 | (KA)8(KKAKE)4(KYKAKA)2KAYKKA-OH [sr-4] | as active as the pure L‐enantiomers | + | + | + | + | + |  |  | 
2 | (KA)8(KKKAK)4(KEKA)2KAKEAYCA-NH2 [compound 36] | preserved | + | + |  | + | - |  |  | 
3 | (KK)8(KAK)4(KEKA)2KAKEAYCA-NH2 [compound 35] | preserved | + | + | + | + | + |  |  | 
4 | Glatiramer acetate [GA, reference compound] |  | + |  |  |  |  | α‐helical | does not cross the BBB | did not occur
